Data as given in EP0584797A2, “Novel cephalosporin compounds and processes for the preparation thereof” (LUCKY LTD., priority 1992, dated 1994).
≈ marks a conversion by molar mass, not a printed value.

How the values were obtained:
Experiment in all cases: minimal inhibitory concentration, two-fold agar dilution
Assay type in all cases: cell-based
[1] = test system: Streptococcus faecalis ATCC 29212; settings: Enterococcus faecalis, ATCC29212; Muller-Hinton agar; 37°C; 20 hours; read-out: MIC values against the standard strains
Experimental: (§1) These MIC values were taken by employing a two-fold dilution method: that is, two-fold serial dilutions of each of the test compounds were made and dispersed in a Muller-Hinton agar medium; 2µl of the standard test strain which had the 10⁷ CFU(Colony Forming Unit) per ml was inoculated on the medium; and these were incubated at 37°C for 20 hours.

[2] = test system: Bacillus cereus ATCC 11778; settings: ATCC11778, Muller-Hinton agar, 37°C, 20 hours, read-out: MIC values against the standard strains
Experimental: as §1

[3] = test system: Proteus mirabilis ATCC 25933; settings: ATCC25933, Muller-Hinton agar, 37°C, 20 hours, read-out: MIC values against the standard strains
Experimental: as §1

[4] = test system: Pseudomonas aeruginosa ATCC 10145; settings: ATCC10145, Muller-Hinton agar, 37°C, 20 hours, read-out: MIC values against the standard strains
Experimental: as §1

[5] = test system: Staphylococcus epidermidis ATCC 12228; settings: ATCC12228, Muller-Hinton agar, 37°C, 20 hours, read-out: MIC values against the standard strains
Experimental: as §1

[6] = test system: Micrococcus luteus ATCC 9341; settings: ATCC9341, Muller-Hinton agar, 37°C, 20 hours, read-out: MIC values against the standard strains
Experimental: as §1

[7] = test system: Escherichia coli ATCC 10536; settings: ATCC10536, Muller-Hinton agar, 37°C, 20 hours, read-out: MIC values against the standard strains
Experimental: as §1

[8] = test system: Staphylococcus aureus ATCC 6538p; settings: ATCC6538P, Muller-Hinton agar, 37°C, 20 hours, read-out: MIC values against the standard strains
Experimental: as §1

[9] = test system: Escherichia coli ATCC 25922; settings: ATCC25922, Muller-Hinton agar, 37°C, 20 hours, read-out: MIC values against the standard strains
Experimental: as §1

[10] = test system: Pseudomonas aeruginosa ATCC 27853; settings: ATCC27853, Muller-Hinton agar, 37°C, 20 hours, read-out: MIC values against the standard strains
Experimental: as §1

[11] = test system: Staphylococcus aureus ATCC 10537; settings: ATCC10537, Muller-Hinton agar, 37°C, 20 hours, read-out: MIC values against the standard strains
Experimental: as §1

[12] = test system: Shigella sonnei ATCC 11060; settings: ATCC11060, Muller-Hinton agar, 37°C, 20 hours, read-out: MIC values against the standard strains
Experimental: as §1

[13] = test system: Klebsiella pneumoniae ATCC 10031; settings: ATCC10031, Muller-Hinton agar, 37°C, 20 hours, read-out: MIC values against the standard strains
Experimental: as §1

[14] = test system: Enterobacter aerogenes ATCC 29751; settings: Klebsiella aerogenes, ATCC29751; Muller-Hinton agar; 37°C; 20 hours; read-out: MIC values against the standard strains
Experimental: as §1

[15] = test system: Proteus vulgaris ATCC 6059; settings: ATCC6059, Muller-Hinton agar, 37°C, 20 hours, read-out: MIC values against the standard strains
Experimental: as §1

[16] = test system: Morganella morganii ATCC 8076h; settings: ATCC8076H, Muller-Hinton agar, 37°C, 20 hours, read-out: MIC values against the standard strains
Experimental: as §1

[17] = test system: Enterobacter cloacae ATCC 27508; settings: ATCC27508, Muller-Hinton agar, 37°C, 20 hours, read-out: MIC values against the standard strains
Experimental: as §1

[18] = test system: Salmonella typhimurium ATCC 14028; settings: Salmonella enterica; Muller-Hinton agar; 37°C; 20 hours; read-out: MIC values against the standard strains
Experimental: as §1

[19] = test system: Bacillus megaterium ATCC 9885; settings: Priestia megaterium, ATCC9885; Muller-Hinton agar; 37°C; 20 hours; read-out: MIC values against the standard strains
Experimental: as §1

[20] = test system: Serratia marcescens ATCC 27117; settings: ATCC27117, Muller-Hinton agar, 37°C, 20 hours, read-out: MIC values against the standard strains
Experimental: as §1

[21] = test system: Acinetobacter calcoaceticus ATCC 15473; settings: ATCC15473, Muller-Hinton agar, 37°C, 20 hours, read-out: MIC values against the standard strains
Experimental: as §1

[22] = test system: Pseudomonas aeruginosa ATCC 25619; settings: ATCC25619, Muller-Hinton agar, 37°C, 20 hours, read-out: MIC values against the standard strains
Experimental: as §1

[23] = test system: Citrobacter freundii ATCC 8090; settings: ATCC8090, Muller-Hinton agar, 37°C, 20 hours, read-out: MIC values against the standard strains
Experimental: as §1

[24] = test system: Shigella flexneri ATCC 11836; settings: ATCC11836, Muller-Hinton agar, 37°C, 20 hours, read-out: MIC values against the standard strains
Experimental: as §1

[25] = test system: Providencia rettgeri ATCC 9250; settings: ATCC9250, Muller-Hinton agar, 37°C, 20 hours, read-out: MIC values against the standard strains
Experimental: as §1

Structure (SMILES)	MIC [1] [mg/L]	MIC [2] [mg/L]	MIC [3] [mg/L]	MIC [4] [mg/L]	MIC [5] [mg/L]	MIC [6] [mg/L]	MIC [7] [mg/L]	MIC [8] [mg/L]	MIC [9] [mg/L]	MIC [10] [mg/L]	MIC [11] [mg/L]	MIC [12] [mg/L]	MIC [13] [mg/L]	MIC [14] [mg/L]	MIC [15] [mg/L]	MIC [16] [mg/L]	MIC [17] [mg/L]	MIC [18] [mg/L]	MIC [19] [mg/L]	MIC [20] [mg/L]	also measured
CCO/N=C(\C(=O)N[C@@H]1C(=O)N2C(C(=O)[O-])=C(CSc3nc(N)cc(OCC(=O)O)[n+]3C)CS[C@H]12)c1csc(N)n1 [Example 19, 7-[(Z)-2-(2-aminothiazol-4-yl)-2-(ethoxyimino)acetamido]-3-(4-amino-6-carboxymethoxy-1-methylpyrimidinium-2-yl)thiomethyl-3-cephem-4-carboxylate]	64 (≈ 102 µM)	128 (≈ 205 µM)	0.063 (≈ 0.101 µM)	32 (≈ 51.2 µM)	2 (≈ 3.2 µM)	0.13 (≈ 0.208 µM)	0.063 (≈ 0.101 µM)	4 (≈ 6.4 µM)	0.063 (≈ 0.101 µM)	16 (≈ 25.6 µM)	2 (≈ 3.2 µM)	0.063 (≈ 0.101 µM)	0.031 (≈ 0.0496 µM)	1 (≈ 1.6 µM)	0.063 (≈ 0.101 µM)	≤ 0.008	≤ 0.008	0.25 (≈ 0.4 µM)	0.25 (≈ 0.4 µM)	0.25 (≈ 0.4 µM)	MIC [21]: 16 mg/L (≈ 25.6 µM); MIC [22]: 8 mg/L (≈ 12.8 µM); MIC [23]: 0.063 mg/L (≈ 0.101 µM); MIC [24]: 0.031 mg/L (≈ 0.0496 µM); MIC [25]: ≤ 0.008 mg/L
C[n+]1c(-c2ccccc2)cc(N)nc1SCC1=C(C(=O)[O-])N2C(=O)[C@@H](NC(=O)/C(=N\OC(C)(C)C(=O)O)c3csc(N)n3)[C@H]2SC1 [Example 20, 7-[(Z)-2-(2-aminothiazol-4-yl)-2-(carboxyprop-2-oxyimino)acetamido]-3-(4-amino-6-phenyl-1-methylpyrimidinium-2-yl)thiomethyl-3-cephem-4-carboxylate]	> 128	64 (≈ 93.5 µM)	0.25 (≈ 0.365 µM)	16 (≈ 23.4 µM)	1 (≈ 1.46 µM)	0.25 (≈ 0.365 µM)	0.25 (≈ 0.365 µM)	4 (≈ 5.84 µM)	0.5 (≈ 0.73 µM)	4 (≈ 5.84 µM)	2 (≈ 2.92 µM)	0.25 (≈ 0.365 µM)	0.13 (≈ 0.19 µM)	4 (≈ 5.84 µM)	0.5 (≈ 0.73 µM)	≤ 0.008	0.13 (≈ 0.19 µM)	1 (≈ 1.46 µM)	0.13 (≈ 0.19 µM)	2 (≈ 2.92 µM)	MIC [21]: 64 mg/L (≈ 93.5 µM); MIC [22]: 2 mg/L (≈ 2.92 µM); MIC [23]: 0.5 mg/L (≈ 0.73 µM); MIC [24]: 0.13 mg/L (≈ 0.19 µM); MIC [25]: ≤ 0.008 mg/L
C[n+]1cc(-c2ccccc2)c(N)nc1SCC1=C(C(=O)[O-])N2C(=O)[C@@H](NC(=O)/C(=N\OC(C)(C)C(=O)O)c3csc(N)n3)[C@H]2SC1 [Example 21, 7-[(Z)-2-(2-aminothiazol-4-yl)-2-(carboxyprop-2-oxyimino)acetamido]-3-(4-amino-5-phenyl-1-methylpyrimidinium-2-yl)thiomethyl-3-cephem-4-carboxylate]	> 128	128 (≈ 187 µM)	0.25 (≈ 0.365 µM)	16 (≈ 23.4 µM)	2 (≈ 2.92 µM)	0.5 (≈ 0.73 µM)	0.13 (≈ 0.19 µM)	4 (≈ 5.84 µM)	0.13 (≈ 0.19 µM)	8 (≈ 11.7 µM)	1 (≈ 1.46 µM)	0.13 (≈ 0.19 µM)	0.031 (≈ 0.0453 µM)	2 (≈ 2.92 µM)	0.25 (≈ 0.365 µM)	≤ 0.008	0.016 (≈ 0.0234 µM)	0.5 (≈ 0.73 µM)	0.13 (≈ 0.19 µM)	0.5 (≈ 0.73 µM)	MIC [21]: 32 mg/L (≈ 46.7 µM); MIC [22]: 2 mg/L (≈ 2.92 µM); MIC [23]: 0.13 mg/L (≈ 0.19 µM); MIC [24]: 0.063 mg/L (≈ 0.092 µM); MIC [25]: ≤ 0.008 mg/L
CCO/N=C(\C(=O)N[C@@H]1C(=O)N2C(C(=O)[O-])=C(CSc3nc(N)c(C(=O)O)c[n+]3C)CS[C@H]12)c1csc(N)n1 [Example 25, 7-[(Z)-2-(2-aminothiazol-4-yl)-2-(ethoxyimino)acetamido]-3-(4-amino-5-carboxy-1-methylpyrimidinium-2-yl)thiomethyl-3-cephem-4-carboxylate]	> 128	64 (≈ 108 µM)	0.25 (≈ 0.42 µM)	32 (≈ 53.8 µM)	0.5 (≈ 0.841 µM)	0.063 (≈ 0.106 µM)	0.031 (≈ 0.0521 µM)	1 (≈ 1.68 µM)	0.031 (≈ 0.0521 µM)	32 (≈ 53.8 µM)	0.5 (≈ 0.841 µM)	0.063 (≈ 0.106 µM)	0.016 (≈ 0.0269 µM)	1 (≈ 1.68 µM)	0.25 (≈ 0.42 µM)	≤ 0.008	≤ 0.008	0.13 (≈ 0.219 µM)	0.25 (≈ 0.42 µM)	0.5 (≈ 0.841 µM)	MIC [21]: 32 mg/L (≈ 53.8 µM); MIC [22]: 2 mg/L (≈ 3.36 µM); MIC [23]: 0.063 mg/L (≈ 0.106 µM); MIC [24]: 0.016 mg/L (≈ 0.0269 µM); MIC [25]: ≤ 0.008 mg/L
